IC50 and Drug uptake data for five compounds are collected here from ChEMBL document CHEMBL1759926, “Exploring new near-infrared fluorescent disulfide-based cyclic RGD peptide analogs for potential integrin-targeted optical imaging” (Bioorg Med Chem Lett, 2011).

Bridge positions count the residues as written; N and C are the ends. Peptide text beside a SMILES is read from it. * marks the point of attachment. Cypate = CC1(C)C(/C=C/C=C/C=C/C=C2/N(CCC(=O)*)c3ccc4ccccc4c3C2(C)C)=[N+](CCC(=O)O)c2ccc3ccccc3c21

The target in one data set is Integrin alpha-V/beta-3 (Homo sapiens, UniProt P05106+P06756). The data set can be described thus: Displacement of [125I]echistatin from human integrin […] expressed in human A549 cells by binding assay. Format: cell-based. (In general: Displacement assays read how much labelled ligand stays bound in the presence of the test substance.)
The next data set relates to A549. The data set is described as follows: Drug uptake in human A549 cells overexpressing […] integrin at 1 uM after 4 to 24 hrs by fluorescence microscopy. Format: ADME, cell-based. The conditions noted are these: a549, 1 µM.

By IC50 is commonly meant the point on the concentration scale where inhibition reaches its midpoint. Higher therefore signals weaker potency in that assay.

Chain of Integrin alpha-V/beta-3 (P05106 27-788 limits assumed): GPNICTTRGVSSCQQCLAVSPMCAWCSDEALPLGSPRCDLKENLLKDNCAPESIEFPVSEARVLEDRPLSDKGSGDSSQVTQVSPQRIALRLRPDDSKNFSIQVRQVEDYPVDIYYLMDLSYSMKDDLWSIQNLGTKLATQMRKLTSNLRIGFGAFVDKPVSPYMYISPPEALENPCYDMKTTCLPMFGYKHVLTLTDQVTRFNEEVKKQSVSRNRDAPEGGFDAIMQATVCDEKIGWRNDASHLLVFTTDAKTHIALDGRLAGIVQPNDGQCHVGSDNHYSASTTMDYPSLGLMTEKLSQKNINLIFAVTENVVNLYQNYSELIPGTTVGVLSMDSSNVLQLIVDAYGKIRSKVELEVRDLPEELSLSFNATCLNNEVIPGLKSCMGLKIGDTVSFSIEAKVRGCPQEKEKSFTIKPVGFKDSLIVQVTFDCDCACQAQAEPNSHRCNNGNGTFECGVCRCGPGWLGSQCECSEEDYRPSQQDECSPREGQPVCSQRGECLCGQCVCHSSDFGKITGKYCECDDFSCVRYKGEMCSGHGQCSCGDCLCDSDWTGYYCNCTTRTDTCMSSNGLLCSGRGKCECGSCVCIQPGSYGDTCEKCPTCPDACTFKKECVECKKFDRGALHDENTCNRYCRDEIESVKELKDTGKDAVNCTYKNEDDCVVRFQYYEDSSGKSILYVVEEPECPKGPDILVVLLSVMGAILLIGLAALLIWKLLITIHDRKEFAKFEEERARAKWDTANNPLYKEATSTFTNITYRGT
Chain of Integrin alpha-V/beta-3 (P06756 31-889 limits assumed): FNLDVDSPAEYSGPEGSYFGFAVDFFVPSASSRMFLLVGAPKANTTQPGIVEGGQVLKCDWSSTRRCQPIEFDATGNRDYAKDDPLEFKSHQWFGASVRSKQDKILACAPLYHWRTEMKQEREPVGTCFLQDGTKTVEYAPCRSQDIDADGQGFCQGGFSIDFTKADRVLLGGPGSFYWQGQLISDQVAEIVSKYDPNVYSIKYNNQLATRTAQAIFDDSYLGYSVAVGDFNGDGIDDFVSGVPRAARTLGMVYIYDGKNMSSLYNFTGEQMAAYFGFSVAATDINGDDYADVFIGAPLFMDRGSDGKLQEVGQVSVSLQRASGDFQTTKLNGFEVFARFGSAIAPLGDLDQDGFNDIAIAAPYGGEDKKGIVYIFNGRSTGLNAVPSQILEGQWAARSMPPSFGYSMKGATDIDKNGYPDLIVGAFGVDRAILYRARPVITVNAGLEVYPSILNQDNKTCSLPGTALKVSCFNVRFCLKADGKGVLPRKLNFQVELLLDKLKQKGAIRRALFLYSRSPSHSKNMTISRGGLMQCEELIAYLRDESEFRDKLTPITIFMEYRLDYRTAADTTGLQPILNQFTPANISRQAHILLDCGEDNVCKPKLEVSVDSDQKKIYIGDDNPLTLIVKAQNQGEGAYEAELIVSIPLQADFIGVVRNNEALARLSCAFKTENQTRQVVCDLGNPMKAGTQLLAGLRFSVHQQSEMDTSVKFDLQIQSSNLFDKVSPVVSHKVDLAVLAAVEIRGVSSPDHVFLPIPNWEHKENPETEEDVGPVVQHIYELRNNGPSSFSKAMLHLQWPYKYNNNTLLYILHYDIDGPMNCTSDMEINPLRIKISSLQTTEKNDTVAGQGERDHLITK
Chain of Integrin alpha-V/beta-3 (P06756 891-1048 limits assumed): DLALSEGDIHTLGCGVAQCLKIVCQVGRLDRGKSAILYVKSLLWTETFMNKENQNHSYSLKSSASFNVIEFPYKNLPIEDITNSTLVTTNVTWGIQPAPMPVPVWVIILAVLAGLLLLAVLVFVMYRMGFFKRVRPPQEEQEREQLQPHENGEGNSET

On to `CC1(C)C(/C=C/C=C/C=C/C=C2/N(CCC(=O)N[C@H]3CSSC[C@@H](C(N)=O)NC(=O)[C@H](CC(=O)O)NC(=O)[C@H](Cc4ccc(O)cc4)NC(=O)[C@H](CCCNC(=N)N)NC3=O)c3ccc4ccccc4c3C2(C)C)=[N+](CCC(=O)O)c2ccc3ccccc3c21` (Cypate-CRYDC-NH2; disulfide 1-5), for which the IC50 at Integrin alpha-V/beta-3 was above 10 µM.
Consider `CC1(C)C(/C=C/C=C/C=C/C=C2/N(CCC(=O)N[C@H]3CSSC[C@@H](C(N)=O)NC(=O)[C@H](CC(=O)O)NC(=O)CNC(=O)[C@H](CCCNC(=N)N)NC3=O)c3ccc4ccccc4c3C2(C)C)=[N+](CCC(=O)O)c2ccc3ccccc3c21`, for which, in the data set with A549, the Drug uptake result was “Active”.
`CC1(C)C(/C=C/C=C/C=C/C=C2/N(CCC(=O)NCCCC[C@@H]3NC(=O)[C@@H](Cc4ccccc4)NC(=O)[C@H](CC(=O)O)NC(=O)CNC(=O)[C@H](CCCNC(=N)N)NC3=O)c3ccc4ccccc4c3C2(C)C)=[N+](CCC(=O)O)c2ccc3ccccc3c21`: the IC50 on Integrin alpha-V/beta-3 amounted to 0.72 µM. The Drug uptake result with A549 is on record as “Active”.
`CC(C)[C@@H]1NC(=O)[C@H](CCCNC(=N)N)NC(=O)[C@@H](NC(=O)CCN2/C(=C/C=C/C=C/C=C/C3=[N+](CCC(=O)O)c4ccc5ccccc5c4C3(C)C)C(C)(C)c3c2ccc2ccccc32)CSSC[C@@H](C(N)=O)NC(=O)[C@H](CC(=O)O)NC1=O` (Cypate-CRVDC-NH2; disulfide 1-5) showed an IC50 on Integrin alpha-V/beta-3 above 10 µM.
`CC1(C)C(/C=C/C=C/C=C/C=C2/N(CCC(=O)N[C@H]3CSSC[C@@H](C(N)=O)NC(=O)[C@H](CC(=O)O)NC(=O)[C@@H]4CCCN4C(=O)[C@H](CCCNC(=N)N)NC3=O)c3ccc4ccccc4c3C2(C)C)=[N+](CCC(=O)O)c2ccc3ccccc3c21` (Cypate-CRPDC-NH2; disulfide 1-5) gave an IC50 on Integrin alpha-V/beta-3 above 10 µM.
